Experimental data taken from EP4623912A1, “A METHOD FOR DEFATTENING A STEATOTIC LIVER EX VIVO” (ETH Zurich, priority 2024, dated 2025).
Entries after “also recorded” stand apart in the source; their conditions may differ.

Experiments:
male C57BL/6N mice = experiment: Murine NASH model (HFD, glucose/fructose water, thermoneutral housing); type: in vivo, mouse
Experimental: To model NASH in murine liver, male C57BL/6N mice were challenged with HFD for 24 weeks in conjunction with 18.9 g/L glucose&23.1 g/L fructose containing drinking water under thermoneutral housing condition (29°C) for 12 weeks before the administration of UCB9608 through HFD (15 mg/kg) for another 12 weeks. Then the mice were analysed in EcoMRI for body composition measurement before 6 hours fasting, followed by dissection to harvest liver and sample blood.
Total RNA was extracted from adipose depots, liver or in vitro cell cultures via Trizol reagent (Invitrogen) according to the manufacturer's instructions. Genomic DNA was removed from the crude RNA samples by DNase treatment (NEB BioLabs). For individual sample, 1 µg of total RNA was used to convert into cDNA library by using the High-Capacity cDNA Reverse transcription kit (Applied Biosystems, 4368813). Quantitative PCR was performed using KAPA SYBR FAST Universal kit (Roche, KK4618) on ViiA7 (Applied Biosystems) and the relative transcript levels were normalized to […] expression via ΔΔCt method. Table 2: Sequences of qPCR primers used in this study.
Plasma collected from mice under different conditions was used to determine levels of lipolysis and liver injury. FFA levels were measured via NEFA assay kit (Wako NEFA kit). TG levels were determined via TG assay kit (Roche Trig/GB reagent). ALT (MAK052, Sigma) and AST (MAK055, Sigma) assay kits were used to determine ALT and AST activity according to the manufacturer's instructions. The absorbance was monitored using Synergy Gen5 Platereader.
Weight of liver pieces (50-100 mg) was recorded before homogenization by 1 mL isopropanol per 50 mg tissue. The homogenates were incubated at room temperature with rotating before spinning down to remove debris at 2000×g for 10 min and collect supernatant. The TG levels were determined (Roche Trig/GB reagent) in Synergy Gen5 Platereader and normalized to the weight of liver pieces.
For NASH cohort, livers were dissected and fixed with 4% PFA in PBS for 24 h at 4°C. The samples were sent to the University of Zurich for histologic analyses. Briefly, liver tissues were dehydrated and embedded in paraffin and underwent section at 3 µm. The slides were stained with hematoxylin and eosin (H&E) and Gomori Green Trichrome directly or stained with anti-cleaved Caspase 3 after antigen retrieval. Afterwards, the images were captured by digital slide scanners and the grade of steatosis, ballooning, inflammation and fibrosis were quantified via the NASH Clinical Research Network Scoring System (Kleiner,D.E. et al. Hepatology 41, (2005)). To perform ORO staining, the fixed samples were sectioned, and the slides were stained via Oil Red O solution, followed by counter-staining with eosin. The images were acquired by digital slide scanners.

[1] = Precipitation of DMSO solution on mixing with water; type: physicochemical; details: dissolved in DMSO, not circulated
human liver graft = system: human liver graft
Experimental: A human liver graft was perfused for 8 days, after being discarded from all Swiss transplant centers. Use of discarded grafts was approved by local authorities (Kantonale Ethik Kommission Zürich KEK Nr. 2017-000412). […] The liver was procured with a total ischemia time of 40 min after circulatory death of the donor. It was flushed with IGL-1 solution and perfused for 2 h with Belzer MPS at 8°C. The infrahepatic vena cava was closed with a suture and the hepatic artery, portal vein, suprahepatic vena cava and common bile duct were cannulated with steel cannulas. The graft was subsequently perfused with whole blood and a custom built normothermic perfusion machine (Eshmuminov,D. et al, Nat Biotechnol 38, (2020)). Hepatic arterial pressure was controlled to be 80/50 mmHg, allowing for an average flow of 0.25 L/min. A vasodilator, epoprostenol, was automatically infused to keep arterial flow stable. Oxygenation was automatically controlled with a setpoint partial pressure of oxygen equal to 12 kPa. Portal venous flow was controlled to be at 1 L/min, resulting in a pressure of 2 mmHg on average. Further, oxygenation of portal blood was automatically regulated to achieve 65% saturation in the vena cava. Use of an electric pinch valve further allowed for pressure regulation in the vena cava, keeping a constant pressure of 0 mmHg. Glucose levels were automatically controlled by using a real-time glucose sensor (CCIT) and automated insulin infusions, keeping glucose levels at 7 mmol/L from the second day of perfusion onwards. A dialysis bypass was used to clear waste metabolites and control haematocrit levels by using a fixed dialysate influx rate of 200 mL/h and an automatically controlled outflux. […] After 8 days of perfusion, the liver weight decreased to 1507g (without gallbladder) and was sent for pathological examination.
Perfusate was mixed with 6 units of red blood cell concentrate (A+), 5 units of fresh frozen […], one unit of thrombocytes and 200 mL of 20% human albumin (CSL Behring). An initial bolus of 2.25 g Tazobactam and 500 mg Methylprednisolone was administered after priming. During the perfusion, 1000 U of heparin were infused per hour. Further, 2.25 g of Tazobactam, 3.36 g of ursodesoxycholic acid and 500 mg of methylprednisolone were continuously infused per day. UCB9608 was administered as a daily bolus by adding 300 µL of 50 mM solution directly to the blood reservoir, targeting a final concentration in the perfusate of 10 µM. On the first day, a larger bolus of 600 µL was given.
Adipose depots, liver pieces, differentiated iBAs, HepG2, HEK293T and HEK293-AAV cell types were homogenized in RIPA buffer (50 mM Tris-HCl pH 7.4, 150 mM NaCl, 2 mM EDTA, 1.0% Triton X100, 0.5% sodium deoxycholate) with protease inhibitors (Complete, Roche) and phosphatase inhibitors (Halt phosphatase inhibitor cocktail, ThermoFisher). The homogenates were centrifuged at 12,000×g for 10 min at 4°C to remove debris and collect whole cell extract (WCE). The concentration of WCE was determined by DC Protein Assay (Bio-Rad). After boiling the sample with Lämmeli buffer at 95°C for 5 min, equal amount of proteins was loaded and separated on 12% SDS-PAGE. […]

[2] = NASH mice, UCB9608 through HFD (15 mg/kg) 12 weeks
[3] = NASH mice, liver histology, UCB9608 12 weeks vs vehicle
[4] = biopsies from both lobes, unchanged in the two control grafts

Structure (SMILES): COc1ccc(NC(=O)N2CCN(c3nc(N)nc4c3cnn4C)[C@@H](C)C2)c(C)c1 [UCB9608]
- inflammation levels by transcript levels of inflammatory markers (male C57BL/6N mice; NASH livers, qPCR (Fig. 7j)): mitigation
- degree of fibrosis-related marker expression (male C57BL/6N mice; NASH livers, qPCR (Fig. 7k), vs vehicle): substantially ameliorated
- ALT activity in the plasma (male C57BL/6N mice; [2]): reduction
- AST activity in the plasma (male C57BL/6N mice; [2]): reduction
- TG levels in the plasma (male C57BL/6N mice; [2]): reduction; also recorded: reduced
- fatty acid oxidation (liver) (male C57BL/6N mice; [2]): significant elevation
- hepatic TG levels (male C57BL/6N mice; [2]): reduced
- liver mass/body weight ratio (male C57BL/6N mice; [2]): reduced
- fat mass (male C57BL/6N mice; NASH mice, UCB9608 through HFD (15 mg/kg) 12 weeks, EcoMRI): significant loss
- body weight (male C57BL/6N mice; NASH mice, UCB9608 through HFD (15 mg/kg) 12 weeks, vs vehicle): significant loss
- NAFLD activity score (male C57BL/6N mice; [3]): significantly lower
- fibrosis grade (male C57BL/6N mice; [3]): significantly lower
- inflammation levels (male C57BL/6N mice; [3]): significantly lower
- liver injury (male C57BL/6N mice; [3]): significantly lower
- steatosis grade (male C57BL/6N mice; [3]): significantly lower
- behaviour of DMSO solution mixed with water [1]: precipitated
- cell viability (ATP analysis and histology) (human liver graft): remained until the end of perfusion
- time liver function was well preserved (human liver graft): at least 6 days
- liver weight after perfusion (human liver graft; after 8 days, without gallbladder, initial weight 2740g with gall bladder): 1507 g
- macrovesicular steatosis after perfusion (human liver graft; after 8 days, 15% before perfusion, pathological examination): less than 5%
- ATGL levels in liver biopsies (human liver graft; [4]): substantially elevated
- TG deposition in liver biopsies (human liver graft; [4]): reduced
- non-esterified fatty acids (NEFAs) from dialysate (human liver graft; during perfusion, UCB9608 daily, target 10 µM): detected
